# Legend:
# Assay in all cases: Kinase panel (140 human kinases)
# Type in all cases: biochemical
# PKA = PKA (Homo sapiens, UniProt P17612)
# Description: (§1) BAY-3827 and BAY-974 were assayed against a 140-human kinase panel at 0.1 μM and at 1 μM (BAY-3827) concentration in a [γ-^33P] ATP–based radioactive filter binding assay ([31], [65]) setup in duplicates with reported mean remaining kinase percentage activity alongside SD (table S1). Assays were performed at either 5, 20, or 50 μM ATP to be at or below the Michaelis constant for ATP for each enzyme and conducted by the services offered by the International Centre for Kinase Profiling at MRC Protein Phosphorylation and Ubiquitylation Unit, University of Dundee (https://www.kinase-screen.mrc.ac.uk/services/premier-screen).
# BRK = BRK (Homo sapiens, UniProt Q13882)
# Description: as §1
# GCK = GCK (Homo sapiens, UniProt Q12851)
# Chain of GCK (Q12851 whole entry): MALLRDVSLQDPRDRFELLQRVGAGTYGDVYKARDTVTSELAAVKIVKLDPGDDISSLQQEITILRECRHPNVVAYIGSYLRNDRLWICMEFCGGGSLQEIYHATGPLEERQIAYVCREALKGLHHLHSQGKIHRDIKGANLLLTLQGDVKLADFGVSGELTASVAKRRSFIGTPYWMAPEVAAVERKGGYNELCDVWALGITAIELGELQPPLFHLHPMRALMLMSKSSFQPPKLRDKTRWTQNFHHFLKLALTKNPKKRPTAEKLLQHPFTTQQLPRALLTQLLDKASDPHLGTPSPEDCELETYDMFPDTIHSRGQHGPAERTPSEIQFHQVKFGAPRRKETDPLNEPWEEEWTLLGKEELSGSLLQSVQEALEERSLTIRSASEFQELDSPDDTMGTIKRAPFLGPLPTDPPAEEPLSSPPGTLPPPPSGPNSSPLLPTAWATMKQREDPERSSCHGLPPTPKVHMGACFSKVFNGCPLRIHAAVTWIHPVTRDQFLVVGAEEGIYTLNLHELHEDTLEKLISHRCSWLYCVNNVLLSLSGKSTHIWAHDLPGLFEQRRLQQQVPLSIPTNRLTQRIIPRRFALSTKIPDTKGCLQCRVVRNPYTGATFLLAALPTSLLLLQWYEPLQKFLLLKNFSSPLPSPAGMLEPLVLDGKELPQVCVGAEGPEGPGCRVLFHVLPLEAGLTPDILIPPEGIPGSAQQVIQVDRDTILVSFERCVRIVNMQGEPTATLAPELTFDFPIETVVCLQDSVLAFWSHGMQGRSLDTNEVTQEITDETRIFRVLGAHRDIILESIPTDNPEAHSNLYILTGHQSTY
# Description: as §1
# CK2 = CK2 (Homo sapiens, UniProt P68400)
# Description: as §1
# SGK1 = SGK1 (Homo sapiens, UniProt O00141)
# Description: as §1
# CAMK1 = CAMK1 (Homo sapiens, UniProt Q14012)
# Chain of CAMK1 (Q14012 whole entry): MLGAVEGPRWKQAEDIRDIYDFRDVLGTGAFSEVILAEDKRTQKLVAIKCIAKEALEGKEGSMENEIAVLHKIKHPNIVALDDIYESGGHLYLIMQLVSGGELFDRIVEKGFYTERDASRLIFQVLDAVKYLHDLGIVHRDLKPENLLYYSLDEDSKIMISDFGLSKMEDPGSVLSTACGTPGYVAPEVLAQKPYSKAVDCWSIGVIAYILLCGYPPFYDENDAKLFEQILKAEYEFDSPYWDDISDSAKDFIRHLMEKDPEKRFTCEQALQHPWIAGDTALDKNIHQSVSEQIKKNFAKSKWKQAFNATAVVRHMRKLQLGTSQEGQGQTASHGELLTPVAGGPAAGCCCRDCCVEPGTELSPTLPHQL
# Description: as §1
# ERK2 = ERK2 (Homo sapiens, UniProt P28482)
# Chain of ERK2 (P28482 whole entry): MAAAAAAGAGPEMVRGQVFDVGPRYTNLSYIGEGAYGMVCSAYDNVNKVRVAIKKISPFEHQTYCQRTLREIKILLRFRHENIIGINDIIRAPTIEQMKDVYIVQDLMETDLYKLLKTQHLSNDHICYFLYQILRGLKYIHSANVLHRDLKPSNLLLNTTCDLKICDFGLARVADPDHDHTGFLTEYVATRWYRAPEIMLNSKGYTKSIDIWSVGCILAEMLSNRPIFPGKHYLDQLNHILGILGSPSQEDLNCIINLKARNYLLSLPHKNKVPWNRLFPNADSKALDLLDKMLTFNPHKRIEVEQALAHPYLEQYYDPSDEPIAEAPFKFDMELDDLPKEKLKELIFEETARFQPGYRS
# Description: as §1
# PRK2 = PRK2 (Homo sapiens, UniProt Q16513)
# Description: as §1
# TAO1 = TAO1 (Homo sapiens, UniProt Q7L7X3)
# Description: as §1
# p38g MAPK = p38g MAPK (Homo sapiens, UniProt P53778)
# Chain of p38g MAPK (P53778 whole entry): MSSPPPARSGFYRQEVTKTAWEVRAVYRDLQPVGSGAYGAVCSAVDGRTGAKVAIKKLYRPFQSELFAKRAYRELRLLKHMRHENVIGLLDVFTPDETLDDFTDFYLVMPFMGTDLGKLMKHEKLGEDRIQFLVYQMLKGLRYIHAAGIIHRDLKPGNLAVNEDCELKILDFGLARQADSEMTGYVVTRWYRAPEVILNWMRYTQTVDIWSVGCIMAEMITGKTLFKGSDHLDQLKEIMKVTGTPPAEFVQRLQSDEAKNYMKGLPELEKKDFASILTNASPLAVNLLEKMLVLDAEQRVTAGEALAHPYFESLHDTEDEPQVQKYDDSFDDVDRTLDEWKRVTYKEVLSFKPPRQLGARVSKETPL
# Description: as §1
# HIPK3 = HIPK3 (Homo sapiens, UniProt Q9H422)
# Description: as §1
# PAK5 = PAK5 (Homo sapiens, UniProt Q9P286)
# Description: as §1
# TLK1 = TLK1 (Homo sapiens, UniProt Q9UKI8)
# Description: as §1
# PIM3 = PIM3 (Homo sapiens, UniProt Q86V86)
# Description: as §1
# MEKK1 = MEKK1 (Homo sapiens, UniProt Q13233)
# Description: as §1
# IGF-1R = IGF-1R (Homo sapiens, UniProt P08069)
# Description: as §1
# MAPKAP-K2 = MAPKAP-K2 (Homo sapiens, UniProt P49137)
# Description: as §1
# CAMKKb = CAMKKb (Homo sapiens, UniProt Q96RR4)
# Description: as §1
# CK1δ = CK1δ (Homo sapiens, UniProt P48730)
# Description: as §1
# TGFBR1 = TGFBR1 (Homo sapiens, UniProt P36897)
# Chain of TGFBR1 (P36897 34-503): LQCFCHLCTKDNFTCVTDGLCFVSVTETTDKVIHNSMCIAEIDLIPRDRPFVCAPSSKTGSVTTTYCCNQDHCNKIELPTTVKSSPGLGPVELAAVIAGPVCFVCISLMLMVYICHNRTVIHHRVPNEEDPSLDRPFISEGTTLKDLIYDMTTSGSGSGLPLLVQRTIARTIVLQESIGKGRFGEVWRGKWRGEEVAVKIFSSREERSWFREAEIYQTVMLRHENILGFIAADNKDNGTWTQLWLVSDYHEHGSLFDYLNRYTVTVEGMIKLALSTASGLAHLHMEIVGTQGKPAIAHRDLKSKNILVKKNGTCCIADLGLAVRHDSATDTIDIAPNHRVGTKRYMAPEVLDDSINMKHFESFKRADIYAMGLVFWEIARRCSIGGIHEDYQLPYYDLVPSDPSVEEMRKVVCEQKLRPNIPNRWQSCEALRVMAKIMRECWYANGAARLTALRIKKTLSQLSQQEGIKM
# Description: as §1
# MPSK1 = MPSK1 (Homo sapiens, UniProt O75716)
# Description: as §1
# ROCK 2 = ROCK 2 (Homo sapiens, UniProt O75116)
# Description: as §1
# PKCz = PKCz (Homo sapiens, UniProt Q05513)
# Description: as §1
# MKK1 = MKK1 (Homo sapiens, UniProt Q02750)
# Description: as §1
# LKB1 = LKB1 (Homo sapiens, UniProt Q15831)
# Description: as §1
# TrkA = TrkA (Homo sapiens, UniProt P04629)
# Description: as §1
# PAK6 = PAK6 (Homo sapiens, UniProt Q9NQU5)
# Description: as §1
# MAP4K5 = MAP4K5 (Homo sapiens, UniProt Q9Y4K4)
# Chain of MAP4K5 (Q9Y4K4 whole entry): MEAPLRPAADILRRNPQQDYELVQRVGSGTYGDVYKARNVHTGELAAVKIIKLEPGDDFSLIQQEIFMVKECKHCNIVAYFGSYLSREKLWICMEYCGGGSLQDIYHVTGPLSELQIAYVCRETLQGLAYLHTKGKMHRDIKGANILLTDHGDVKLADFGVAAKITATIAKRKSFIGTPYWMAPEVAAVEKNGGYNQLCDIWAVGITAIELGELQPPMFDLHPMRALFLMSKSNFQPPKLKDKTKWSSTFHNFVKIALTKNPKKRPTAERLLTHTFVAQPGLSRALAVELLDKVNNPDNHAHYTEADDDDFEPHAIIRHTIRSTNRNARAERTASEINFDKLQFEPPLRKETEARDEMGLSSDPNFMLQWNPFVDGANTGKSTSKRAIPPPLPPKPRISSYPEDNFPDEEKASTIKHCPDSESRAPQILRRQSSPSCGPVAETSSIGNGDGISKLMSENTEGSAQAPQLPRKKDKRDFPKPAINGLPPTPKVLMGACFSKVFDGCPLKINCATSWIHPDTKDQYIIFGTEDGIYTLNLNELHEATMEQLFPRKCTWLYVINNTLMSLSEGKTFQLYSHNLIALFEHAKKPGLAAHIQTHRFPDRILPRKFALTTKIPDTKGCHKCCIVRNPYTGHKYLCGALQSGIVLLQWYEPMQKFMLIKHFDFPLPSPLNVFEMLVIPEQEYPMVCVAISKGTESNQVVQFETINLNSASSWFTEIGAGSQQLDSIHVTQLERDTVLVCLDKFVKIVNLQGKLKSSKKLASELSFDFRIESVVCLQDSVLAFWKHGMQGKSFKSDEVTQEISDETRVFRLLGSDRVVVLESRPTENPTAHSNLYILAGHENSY
# Description: as §1
# HER4 = HER4 (Homo sapiens, UniProt Q15303)
# Description: as §1
# MARK2 = MARK2 (Homo sapiens, UniProt Q7KZI7)
# Chain of MARK2 (Q7KZI7 whole entry): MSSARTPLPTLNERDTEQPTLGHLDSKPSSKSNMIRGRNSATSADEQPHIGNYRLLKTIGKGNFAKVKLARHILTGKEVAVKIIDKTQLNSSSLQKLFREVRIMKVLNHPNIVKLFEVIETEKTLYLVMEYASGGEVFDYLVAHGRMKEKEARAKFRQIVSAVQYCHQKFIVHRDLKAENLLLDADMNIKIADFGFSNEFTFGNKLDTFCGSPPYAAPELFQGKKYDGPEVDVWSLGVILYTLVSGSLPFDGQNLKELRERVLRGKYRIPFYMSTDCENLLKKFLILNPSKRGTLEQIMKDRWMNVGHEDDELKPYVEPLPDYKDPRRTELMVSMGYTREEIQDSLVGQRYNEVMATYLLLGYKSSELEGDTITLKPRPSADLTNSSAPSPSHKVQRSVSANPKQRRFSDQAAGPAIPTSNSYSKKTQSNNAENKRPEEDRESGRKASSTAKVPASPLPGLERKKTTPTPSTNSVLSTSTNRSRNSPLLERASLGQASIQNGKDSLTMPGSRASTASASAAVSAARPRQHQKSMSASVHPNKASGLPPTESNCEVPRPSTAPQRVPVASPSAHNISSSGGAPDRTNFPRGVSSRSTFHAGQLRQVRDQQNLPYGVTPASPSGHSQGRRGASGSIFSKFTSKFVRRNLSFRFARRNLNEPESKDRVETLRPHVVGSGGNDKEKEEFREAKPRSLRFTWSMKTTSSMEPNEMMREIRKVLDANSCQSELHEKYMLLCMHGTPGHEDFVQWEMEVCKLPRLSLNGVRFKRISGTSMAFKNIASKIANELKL
# Description: as §1
# Aurora A = Aurora A (Homo sapiens, UniProt O14965)
# Description: as §1
# MKK2 = MKK2 (Homo sapiens, UniProt P36507)
# Description: as §1
# BTK = BTK (Homo sapiens, UniProt Q06187)
# Description: as §1
# PDGFRA = PDGFRA (Homo sapiens, UniProt P16234)
# Description: as §1
# PAK4 = PAK4 (Homo sapiens, UniProt O96013)
# Description: as §1
# p38d MAPK = p38d MAPK (Homo sapiens, UniProt O15264)
# Description: as §1
# TESK1 = TESK1 (Homo sapiens, UniProt Q15569)
# Description: as §1
# VEG-FR = conditions: 0.1 μM
# Description: as §1
# IKKe = IKKe (Homo sapiens, UniProt Q14164)
# Description: as §1
# JNK3 = JNK3 (Homo sapiens, UniProt P53779)
# Chain of JNK3 (P53779 whole entry): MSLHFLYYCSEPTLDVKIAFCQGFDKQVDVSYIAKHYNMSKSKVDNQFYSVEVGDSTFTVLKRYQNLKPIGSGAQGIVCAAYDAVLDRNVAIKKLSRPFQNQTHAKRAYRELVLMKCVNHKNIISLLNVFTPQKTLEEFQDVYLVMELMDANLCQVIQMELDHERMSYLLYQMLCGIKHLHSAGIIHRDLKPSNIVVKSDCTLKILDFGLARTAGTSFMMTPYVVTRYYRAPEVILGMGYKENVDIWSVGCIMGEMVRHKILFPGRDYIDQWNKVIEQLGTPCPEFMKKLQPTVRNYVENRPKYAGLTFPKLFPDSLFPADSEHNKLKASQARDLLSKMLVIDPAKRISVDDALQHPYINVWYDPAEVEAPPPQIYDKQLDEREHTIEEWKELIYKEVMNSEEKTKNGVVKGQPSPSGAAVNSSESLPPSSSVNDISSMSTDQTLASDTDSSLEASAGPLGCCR
# Description: as §1
# MAP4K3 = MAP4K3 (Homo sapiens, UniProt Q8IVH8)
# Description: as §1
smiles,measurement,setting,value
"CC1=C(C#N)C(c2ccc3c(c2)c(NC(=O)c2ccccc2C)nn3C)C(C#N)=C(C)N1 [BAY-974, N-[5-(3,5-dicyano-2,6-dimethyl-1,4-dihydropyridin-4-yl)-1-methylindazol-3-yl]-2-methylbenzamide]",remaining activity at 0.1 µM,PKA,103%
same,remaining activity at 0.1 µM,BRK,70%
same,remaining activity at 0.1 µM,GCK,65%
same,remaining activity at 0.1 µM,CK2,79%
same,remaining activity at 0.1 µM,SGK1,127%
same,remaining activity at 0.1 µM,CAMK1,78%
same,remaining activity at 0.1 µM,ERK2,110%
same,remaining activity at 0.1 µM,PRK2,83%
same,remaining activity at 0.1 µM,TAO1,88%
same,remaining activity at 0.1 µM,p38g MAPK,95%
same,remaining activity at 0.1 µM,HIPK3,99%
same,remaining activity at 0.1 µM,PAK5,82%
same,remaining activity at 0.1 µM,TLK1,100%
same,remaining activity at 0.1 µM,PIM3,125%
same,remaining activity at 0.1 µM,MEKK1,99%
same,remaining activity at 0.1 µM,IGF-1R,147%
same,remaining activity at 0.1 µM,MAPKAP-K2,84%
same,remaining activity at 0.1 µM,CAMKKb,107%
same,remaining activity at 0.1 µM,CK1δ,116%
same,remaining activity at 0.1 µM,TGFBR1,113%
same,remaining activity at 0.1 µM,MPSK1,105%
same,remaining activity at 0.1 µM,ROCK 2,98%
same,remaining activity at 0.1 µM,PKCz,103%
same,remaining activity at 0.1 µM,MKK1,100%
same,remaining activity at 0.1 µM,LKB1,104%
same,remaining activity at 0.1 µM,TrkA,97%
same,remaining activity at 0.1 µM,PAK6,102%
same,remaining activity at 0.1 µM,MAP4K5,89%
same,remaining activity at 0.1 µM,HER4,93%
same,remaining activity at 0.1 µM,MARK2,87%
same,remaining activity at 0.1 µM,Aurora A,79%
same,remaining activity at 0.1 µM,MKK2,95%
same,remaining activity at 0.1 µM,BTK,94%
same,remaining activity at 0.1 µM,PDGFRA,86%
same,remaining activity at 0.1 µM,PAK4,96%
same,remaining activity at 0.1 µM,p38d MAPK,108%
same,remaining activity at 0.1 µM,TESK1,88%
same,Kinase activity remaining (%),VEG-FR,95%
same,remaining activity at 0.1 µM,IKKe,101%
same,remaining activity at 0.1 µM,JNK3,104%
same,remaining activity at 0.1 µM,MAP4K3,73%
"CCc1ccccc1C(=O)Nc1n[nH]c2c(C)c(F)c(C3C(C#N)=C(C)N(C)C(C)=C3C#N)cc12 [BAY-3827, N-[5-(3,5-dicyano-1,2,6-trimethyl-4H-pyridin-4-yl)-6-fluoro-7-methyl-1H-indazol-3-yl]-2-ethylbenzamide]",remaining activity at 0.1 µM,PKA,94%
same,remaining activity at 0.1 µM,BRK,83%
same,remaining activity at 0.1 µM,GCK,105%
same,remaining activity at 0.1 µM,CK2,85%
same,remaining activity at 0.1 µM,SGK1,97%
same,remaining activity at 0.1 µM,CAMK1,80%
same,remaining activity at 0.1 µM,ERK2,116%
same,remaining activity at 0.1 µM,PRK2,88%
same,remaining activity at 0.1 µM,TAO1,94%
same,remaining activity at 0.1 µM,p38g MAPK,90%
same,remaining activity at 0.1 µM,HIPK3,77%
same,remaining activity at 0.1 µM,PAK5,100%
same,remaining activity at 0.1 µM,TLK1,118%
same,remaining activity at 0.1 µM,PIM3,101%
same,remaining activity at 1 µM,"PIM3; 1 μM, cross-referenced with screen data of ref 37, read-out: activity remaining after treatment",≥ 99%
same,remaining activity at 0.1 µM,MEKK1,97%
same,remaining activity at 0.1 µM,IGF-1R,67%
same,remaining activity at 0.1 µM,MAPKAP-K2,82%
same,remaining activity at 0.1 µM,CAMKKb,97%
same,remaining activity at 0.1 µM,CK1δ,103%
same,remaining activity at 0.1 µM,TGFBR1,86%
same,remaining activity at 0.1 µM,MPSK1,135%
same,remaining activity at 0.1 µM,ROCK 2,83%
same,remaining activity at 0.1 µM,PKCz,112%
same,remaining activity at 0.1 µM,MKK1,100%
same,remaining activity at 0.1 µM,LKB1,97%
same,remaining activity at 0.1 µM,TrkA,87%
same,remaining activity at 0.1 µM,PAK6,106%
same,remaining activity at 0.1 µM,MAP4K5,97%
same,remaining activity at 0.1 µM,HER4,135%
same,remaining activity at 0.1 µM,MARK2,77%
same,remaining activity at 0.1 µM,Aurora A,90%
same,remaining activity at 0.1 µM,MKK2,97%
same,remaining activity at 0.1 µM,BTK,85%
same,remaining activity at 0.1 µM,PDGFRA,82%
same,remaining activity at 0.1 µM,PAK4,80%
same,remaining activity at 0.1 µM,p38d MAPK,99%
same,remaining activity at 0.1 µM,TESK1,70%
same,Kinase activity remaining (%),VEG-FR,89%
same,remaining activity at 0.1 µM,IKKe,85%
same,remaining activity at 0.1 µM,JNK3,88%
same,remaining activity at 0.1 µM,MAP4K3,82%
